Laboratory results taken from patent US20160318844A1, “PROSTACYCLIN COMPOUNDS, COMPOSITIONS AND METHODS OF USE THEREOF” (Insmed Incorporated, priority 2015, published 2016).
Like-named read-outs stand apart in the source and are kept apart here.

Columns and labels:
[1] = Treprostinil alkyl ester conversion to treprostinil in monkey lung tissue homogenate; type: in vitro ADME; conditions: 37° C.
Protocol: (§1) Here, data were calculated based on fit of exponential increase to the maximum (experiments performed in duplicate). The results of this study are provided below in Table 2A and FIG. 37. […] In this experiment, treprostinil alkyl esters were incubated for 4 hours at a final concentration of 200 nM in 1 mL of tissue homogenate prepared in water and normalized to 10 mg/mL of protein.
(§2) C12-TR was incubated for 4 hours at a final concentration of 200 nM in 1 mL of tissue homogenate prepared in water and normalized to 10 mg/mL of protein. Both FIG. 37 experiments (eft and right graphs) were performed in duplicate and the lines represent nonlinear exponential regression assuming 1 phase decay. Table 2A. Rate of treprostinil alkyl ester conversion in the presence of rat, dog or monkey lung tissue homogenate.

[2] = Treprostinil alkyl ester conversion to treprostinil in rat lung tissue homogenate; type: in vitro ADME; conditions: 37° C., 200 nM, 10 mg/mL of protein
Protocol: as §1, §2

EP2 prostanoid receptor = target: T1, EP2 prostanoid receptor (Homo sapiens, UniProt P43116); test: GloSensor cAMP assay in CHO-K1 cells co-transfected with the EP2 receptor; type: cell-based
T1 construct: host or cells: CHO-K1
Text: cAMP is a second messenger involved in signal transduction of G-protein coupled receptors (GPCRs) acting through Gα-s and Gα-i proteins. Because the treprostinil receptor is a GPCR, the assay provides an indication of whether the respective prostacyclin compound (or metabolite thereof) binds its receptor and activates the GPCR cell signaling cascade. The GloSensorTM assay harnesses a genetically modified form of firefly luciferase into which a cAMP-binding protein moiety has been inserted. Upon binding of cAMP, a conformational change is induced leading to increased light output. The EP2 prostanoid receptor was cotransfected with the GioSensorm plasmid (Promega) into CHO-K cells as follows. CHO-K cells were harvested when the monoloayer was at 50-90% confluence. First, cells were washed with 5 mL PBS. […] The media was aspirated, and the cell pellet was resuspended in 10 mL of growth media. Cell number was determined using a hemacytometer. […] For small scale transfections of up to 20 wells, the pGLoSensor-22F cAMP plasmid (Promega, Cat #: E2301) (2 apg): […] Cat #: […] P2271) ratio was diluted to a final concentration of 12.6 ng/μL (total plasmid) in Opti-MEM I reduced-serum medium (Life Technologies, Cat #: 1985062). Next, 6 μL of FuGENE HD transfection reagent (Promega, Cat #: E2311) was added to 160 μL of diluted plasmid and mixed carefully by gentle pipetting. The complex was incubated at room temperature for 0 to 10 minutes, and then 8 μL of the complex was added per well of a 96 well white assay plate (Costar, Cat #: 3917) and gently mixed without disturbing the cell monolayer. […] Following incubation, cells were treated and analyzed. For larger scale transfections, the aforementioned steps were scaled up accordingly, and cells were frozen following the last incubation. In order to prepare frozen transfected CHO-K cells, the media was aspirated from culture flasks and cells were rinsed with 5 mL PBS. […] Cell number was determined using a hemacytometer. The media was aspirated, and the cell pellet was resuspended in freezing media (Millipore, cat #: S-002-SF) at 2.5×10^4 cells/vial. Transfected cells were incubated overnight at -80° C. before transfer to liquid nitrogen for long term storage. […] SH30071.03)). […] In preparation for cAMP measurement, the cells were equilibrated with the GloSensor cAMP reagent prior to treatment. For equilibration, the medium was carefully removed from the individual well. Next, 100 μL of equilibration medium ([…] of Glosensor Reagent stock solution (Promega, Cat #: E291), 10% FBS (Hydone, Cat #: SH30071.03) and 88% CO2 independent medium (Life Technologies, Cat #: 18045088)) was added per well of the 96-well plate, and added to the side of each well. The plate was then incubated for 2 hours at room temperature. A first pre-read measurement was taken using a microplate reader (MicroLumat Plus). Plates were incubated for an additional 10 minutes at room temperature, followed by a second pre-read measurement. […] Following treatment, each plate was read every 5 minutes for the duration of the assay using a microplate reader (MicroLumat Plus). In order to determine the fold change in cAMP relative to the control, the transfection efficiency was first determined by dividing the second pre-read measurement by the average of the corresponding pre-read measurements. Next, the normalized relative light units (RLUs) of the samples were determined by dividing the plate read measurement by the transfection efficiency. The fold change in cAMP relative to the control was then determined by dividing the normalized RLU of the samples by the normalized RLU of the control. The cAMP assay was validated using free treprostinil. […] Luminescence was then measured at room temperature. […] Nebulizer Aeroneb Pro (Aerogen) was used to nebulize treprostinil derivative compositions. Desired volume of the formulation (usually 3 mL) was loaded to the mesh head of the nebulizer. […]

[3] = Treprostinil alkyl ester conversion to treprostinil in dog lung tissue homogenate; type: in vitro ADME; conditions: 37° C.
Protocol: as §1, §2

NR8383 cells = test: NR8383 cell proliferation assay; type: cell-based, rat; conditions: for Effect on cell proliferation, NR8383 Cells: detectable cell inhibition: Table 9, unformulated alkyl esters, (0.195 μM-25 μM), 72 hour incubation
Protocol: Rat alveolar NR8383 cells were harvested when the monolayer was 50-90% confluent (use passage 5-11). Because the NR8383 cells include both adherent and non-adherent cells, media was transferred to a 50 mL Falcon tube. To obtain the cells remaining in the flask, 2 mL of plain media was added, and the remaining cells were scraped out of the 75 cm^2 flask with a cell scraper and added to the 50 mL tube. […] SH30071.03)+1×Pen-Strep (Life Technologies, cat #: 15410-122)). Cell number was determined using a hemacytometer. […] Measurements and calculations were made as described above for the CHO-K1 cells. Rat alveolar NR8383 cells were challenged with the same treprostinil derivative compositions: […]

[4] = 4.5 hr incubation time, read-out: EC50 (μM) 4.5 hr
[5] = 6.0 hr incubation time, read-out: EC50 (μM) 6.0 hr
[6] = 8.0 hr incubation time, read-out: EC50 (μM) 8.0 hr
[7] = EC50 (μM) 0.5 hr, 0.5 hr incubation time
[8] = EC50 (μM) 1.0 hr, 1.0 hr incubation time
[9] = EC50 (μM) 2.0 hr, 2.0 hr incubation time
[10] = EC50 (μM) 3.0 hr, 3.0 hr incubation time
[11] = EC50 (μM) 4.0 hr, 4.0 hr incubation time
[12] = EC50 (μM) 5.0 hr, 5.0 hr incubation time
[13] = EC50 (μM) 7.0 hr, 7.0 hr incubation time

T1 sequence (P43116 whole entry): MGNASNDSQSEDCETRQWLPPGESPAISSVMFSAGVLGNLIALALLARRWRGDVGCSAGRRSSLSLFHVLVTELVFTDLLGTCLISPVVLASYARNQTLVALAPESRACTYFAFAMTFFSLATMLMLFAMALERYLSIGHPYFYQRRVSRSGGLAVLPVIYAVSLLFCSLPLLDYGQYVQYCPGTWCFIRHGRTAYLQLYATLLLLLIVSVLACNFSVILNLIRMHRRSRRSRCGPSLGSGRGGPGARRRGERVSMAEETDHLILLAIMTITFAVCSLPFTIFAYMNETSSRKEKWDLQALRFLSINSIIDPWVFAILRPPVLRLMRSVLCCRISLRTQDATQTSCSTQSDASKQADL

Row | Structure (SMILES) | Rate of treprostinil alkyl ester conversion [1] | Rate of treprostinil alkyl ester conversion [2] | EC50 (EP2 prostanoid receptor; [4]) | EC50 (EP2 prostanoid receptor; [5]) | EC50 (EP2 prostanoid receptor; [6]) | EC50 (EP2 prostanoid receptor; [7]) | EC50 (EP2 prostanoid receptor; [8]) | EC50 (EP2 prostanoid receptor; [9]) | EC50 (EP2 prostanoid receptor; [10]) | EC50 (EP2 prostanoid receptor; [11]) | EC50 (EP2 prostanoid receptor; [12]) | EC50 (EP2 prostanoid receptor; [13]) | Rate of treprostinil alkyl ester conversion [3] | Effect on cell proliferation, NR8383 Cells: detectable cell inhibition (NR8383 cells) | inhibition of NR8383 cell proliferation (NR8383 cells; unformulated alkyl esters, highest concentration, 72 hour)
1 | CCCCCCCCOC(=O)COc1cccc2c1C[C@H]1C[C@@H](O)[C@H](CC[C@@H](O)CCCCC)[C@H]1C2 [Compound C8-TR, treprostinil octyl ester] | 17.3 nmOL/h * g of protein | 32.5 nmOL/h * g of protein | 1.41 µM | 1.4 µM | 1.09 µM | 3.69 µM | 3.39 µM | 1.69 µM | 1.42 µM | 1.53 µM | 1.4 µM | 1.34 µM | 49.8 nmOL/h * g of protein | Some detectable cell | showed some inhibition of cell proliferation
2 | CCCCCCCCCCCCOC(=O)COc1cccc2c1C[C@H]1C[C@@H](O)[C@H](CC[C@@H](O)CCCCC)[C@H]1C2 [Compound C12-TR, dodecyl-treprostinil] | 0.6 nmOL/h * g of protein | 1.1 nmOL/h * g of protein | 3.17 µM | 3.25 µM | 2.9 µM | 4.98 µM | 5.35 µM | 4.54 µM | 4.07 µM | 3.13 µM | 2.94 µM | 3.17 µM | 2.2 nmOL/h * g of protein | No detectable cell inhibition | 
